The LD50 is the dose expected to kill half of the subjects tested.

This passage reports LD50 results from patent publication EP0491813B1, “BIODEGRADABLE CONTROLLED RELEASE MATRICES” (priority 1989, dated 1991).

The nature of this data set: dermal toxicity test with moistened product (US EPA guidelines), samples secured to skin for 24 hours. The following applies: rabbit, in vivo, topical or ocular, male rabbits, 24 hours exposure, survivors observed for 14 days, read-out: LD50 DOSAGE. Here is the method:
Dermal toxicity tests using this formulation, a conventional synthetic polymer formulation comprising 10% w/w phorate and pure phorate (10% w/w) were performed on male rabbits by securing samples to the skin of the test animals for a period of 24 hours. At the expiry of this period rabbits were examined for mortality and surviving rabbits observed for 14 days before sacrifice and examination. The LD50 values are shown below in table 3.

As for `CCOP(=S)(OCC)SCSCC` [Technical grade phorate (10% w/w), phorate], the LD50 worked out at 5.2 mg/kg.
